Experimental findings from BindingDB's records for doi:10.1021/jm00061a022 (Merck Research Laboratories, 1993) are described below.

Usually pIC50 stands for the IC50 on a negative log10 scale, so that one unit is a factor of ten.

Holding throughout (assay): HIV-1 RT Assay
Conditions in all cases: pH 8.2

Assay [1] concerns the target Gag-Pol polyprotein [588-1027]/[588-1147] (Human immunodeficiency virus 1, UniProt P04585).
The target of assay [2] is Gag-Pol polyprotein [588-1127,Y768C]/[588-1147,Y768C] (Human immunodeficiency virus 1, UniProt P04585, Y768C).
Assay [3] deals with Gag-Pol polyprotein [588-1027,K690N]/[588-1147,K690N] (Human immunodeficiency virus 1, UniProt P04585, K690N).

pIC50: −log10 of the molar value.

As to `[O-][S+](Cc1[nH]c2ccccc2c1Sc1ccccc1)c1ccccc1` (configuration not stated) [2-[(benzenesulfinyl)methyl]-3-(phenylsulfanyl)-1H-indole], the results for the negative-log IC50 (pIC50) in assay [1], in assay [2] and in assay [3] were 7.20, 5.52 and 5.59, respectively.

Regarding `[O-][S+](Cc1[nH]c2ccc(Cl)cc2c1Sc1ccccc1)c1ccccc1` (configuration not stated) [2-[(benzenesulfinyl)methyl]-5-chloro-3-(phenylsulfanyl)-1H-indole], the negative logarithm of the IC50 (pIC50) in assay [1] was 6.95.

`[O-][S+](Cc1[nH]c2ccccc2c1[S+]([O-])c1ccccc1)c1ccccc1` (configuration not stated) [3-(benzenesulfinyl)-2-[(benzenesulfinyl)methyl]-1H-indole] had a pIC50 in assay [1] of 4.14.

In the case of `NC(=O)c1[nH]c2ccc(Cl)cc2c1[S+]([O-])c1ccccc1` (configuration not stated) [3-(benzenesulfinyl)-5-chloro-1H-indole-2-carboxamide], the negative logarithm of the IC50 (pIC50) in assay [1] was 7.64; in assay [2], 5.86; in assay [3] it was 5.56.

For the molecule `NC(=O)c1[nH]c2ccc(Cl)cc2c1Sc1ccccc1` [5-chloro-3-(phenylsulfanyl)-1H-indole-2-carboxamide], the pIC50 is 7.85 in assay [1], 5.98 in assay [2] and 5.84 in assay [3].

In assay [1], `CNC(=O)c1[nH]c2ccc(Cl)cc2c1Sc1ccccc1` [5-chloro-N-methyl-3-(phenylsulfanyl)-1H-indole-2-carboxamide] showed a pIC50 of 7.66.

On to `NC(=O)c1[nH]c2ccc(Cl)cc2c1S(=O)(=O)c1ccccc1` [5Cl3PhSO2-2IndolCONH2], for which the negative logarithm of the IC50 (pIC50) in assay [1] was 8.52; in assay [2], 7.15; in assay [3] it was 6.94.

`CC(C)=CCN1Cc2cc(Cl)cc3[nH]c(=S)n(c23)C[C@@H]1C` [(11S)-6-chloro-11-methyl-10-(3-methylbut-2-en-1-yl)-1,3,10-triazatricyclo[6.4.1.0^{4,13}]trideca-4,6,8(13)-triene-2-thione]: the pIC50 in assay [1] is 6.51; in assay [2], 4.40; in assay [3], 5.14.

Take `CN(C)C(=O)c1[nH]c2ccccc2c1Sc1ccccc1` [N,N-dimethyl-3-(phenylsulfanyl)-1H-indole-2-carboxamide]: the negative-log IC50 (pIC50) in assay [1] is 4.06.

As for `CNC(=O)c1[nH]c2ccccc2c1Sc1ccccc1` [N-methyl-3-(phenylsulfanyl)-1H-indole-2-carboxamide], in assay [1], the pIC50 was 6.13.

In assay [1], `COC(=O)c1[nH]c2ccccc2c1Sc1ccccc1` [methyl 3-(phenylsulfanyl)-1H-indole-2-carboxylate] had a negative-log IC50 (pIC50) of 5.60.

For `COC(=O)c1[nH]c2ccc(Cl)cc2c1Sc1ccccc1` [methyl 5-chloro-3-(phenylsulfanyl)-1H-indole-2-carboxylate], the negative logarithm of the IC50 (pIC50) in assay [1] was 6.81.
